From BindingDB's records for PubMed 38943875 (Kurukshetra University)

These compounds were tested against T1, Alpha-amylase 1A (Homo sapiens, UniProt P0DUB6) (assay: Inhibition of alpha-amylase (unknown origin) using 1% starch as substrate preincubated for 30 mins followed by substrate addition and measured after 30 mins by colorimetric analysis).
T1 sequence (P0DUB6 whole entry): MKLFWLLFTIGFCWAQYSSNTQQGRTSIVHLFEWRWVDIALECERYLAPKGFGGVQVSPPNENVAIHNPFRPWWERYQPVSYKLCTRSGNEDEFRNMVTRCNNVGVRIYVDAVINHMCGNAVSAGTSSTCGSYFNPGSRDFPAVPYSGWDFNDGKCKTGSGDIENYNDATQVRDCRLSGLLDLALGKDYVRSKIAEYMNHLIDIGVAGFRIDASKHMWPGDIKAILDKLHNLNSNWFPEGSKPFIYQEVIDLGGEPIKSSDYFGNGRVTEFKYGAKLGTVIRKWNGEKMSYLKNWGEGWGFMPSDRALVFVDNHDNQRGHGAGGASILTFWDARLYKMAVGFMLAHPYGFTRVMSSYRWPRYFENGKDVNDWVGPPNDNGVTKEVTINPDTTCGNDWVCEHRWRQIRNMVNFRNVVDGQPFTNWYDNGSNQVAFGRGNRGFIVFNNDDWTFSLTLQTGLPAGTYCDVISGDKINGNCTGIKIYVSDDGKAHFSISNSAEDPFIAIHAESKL

SMILES | IC50 [µM]
C#CCN1C(=O)SC(=CN(C)C)C1=O | 139
Cc1cccc(-n2cc(CN3C(=O)SC(=CN(C)C)C3=O)nn2)c1 | 61
CN(C)C=C1SC(=O)N(Cc2cn(-c3ccc([N+](=O)[O-])cc3)nn2)C1=O | 59
CN(C)C=C1SC(=O)N(Cc2cn(-c3ccccc3)nn2)C1=O | 99
CN(C)C=C1SC(=O)N(Cc2cn(-c3ccc(F)cc3)nn2)C1=O | 93
CN(C)C=C1SC(=O)N(Cc2cn(-c3cccc(Cl)c3)nn2)C1=O | 66
CN(C)C=C1SC(=O)N(Cc2cn(-c3ccc(Cl)cc3)nn2)C1=O | 98
CN(C)C=C1SC(=O)N(Cc2cn(-c3ccc(C(F)(F)F)cc3)nn2)C1=O | 84
CN(C)C=C1SC(=O)N(Cc2cn(-c3ccccc3Cl)nn2)C1=O | 91
COc1cccc(-n2cc(CN3C(=O)SC(=CN(C)C)C3=O)nn2)c1 | 69
Cc1ccc(C)c(-n2cc(CN3C(=O)SC(=CN(C)C)C3=O)nn2)c1 | 93
Cc1cc(C)cc(-n2cc(CN3C(=O)SC(=CN(C)C)C3=O)nn2)c1 | 66
COc1ccccc1-n1cc(CN2C(=O)SC(=CN(C)C)C2=O)nn1 | 65
CN(C)C=C1SC(=O)N(Cc2cn(-c3cccc(Cl)c3Cl)nn2)C1=O | 60
CCc1ccc(-n2cc(CN3C(=O)SC(=CN(C)C)C3=O)nn2)cc1 | 68
CN(C)C=C1SC(=O)N(Cc2cn(Cc3ccccc3)nn2)C1=O | 80
CN(C)C=C1SC(=O)N(Cc2cn(CC(=O)c3ccc(Br)cc3)nn2)C1=O | 78

Other lines, results leading:

IC50 [µM] | SMILES
53 | COc1ccc(-n2cc(CN3C(=O)SC(=CN(C)C)C3=O)nn2)cc1
40 | CN(C)C=C1SC(=O)N(Cc2cn(-c3ccnc4cc(Cl)ccc34)nn2)C1=O
58 | CCCCn1cc(CN2C(=O)SC(=CN(C)C)C2=O)nn1
48 | CN(C)C=C1SC(=O)N(Cc2cn(-c3ccccc3C(F)(F)F)nn2)C1=O
55 | CN(C)C=C1SC(=O)N(Cc2cn(-c3cccc(C(F)(F)F)c3)nn2)C1=O
48 | Cc1ccc(-n2cc(CN3C(=O)SC(=CN(C)C)C3=O)nn2)c(C)c1
49 | CCc1ccccc1-n1cc(CN2C(=O)SC(=CN(C)C)C2=O)nn1
54 | CC(C)c1ccc(-n2cc(CN3C(=O)SC(=CN(C)C)C3=O)nn2)cc1
45 | CN(C)C=C1SC(=O)N(Cc2cn(Cc3ccc(Cl)cc3Cl)nn2)C1=O
